System: 192522-019-R-J2-PDC complex tumor spheroid viability
Test: Anticancer human tumor 192522-019-R-J2-PDC patient-derived colon adenocarcinoma cell line growth inhibition [POLQ]
Details: for IC50: curve of first compound; for viability, T/C: stronger effect = lower value
How it was run: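 Complex spheroid viability model combining PDC tumour cells with endothelial (HUVEC) and MSC stromal cells. Novobiocin, ART-558 or RP6685 were tested singly and in combination with standard and investigational anticancer drugs. Each was titrated in half-log steps from near clinical Cmax, or from 10 microM where Cmax was unknown.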

[1] = second compound 0.0316 µM, first compound 0.0316 µM
[2] = second compound 0.0316 µM, first compound 0.1 µM
[3] = second compound 0.0316 µM, first compound 0.316 µM
[4] = second compound 0.0316 µM, first compound 1 µM
[5] = second compound 0.0316 µM, first compound 3.16 µM
[6] = second compound 0.0316 µM, first compound 10 µM
[7] = second compound 0.1 µM, first compound 0.0316 µM
[8] = second compound 0.1 µM, first compound 0.1 µM
[9] = second compound 0.1 µM, first compound 0.316 µM
[10] = second compound 0.1 µM, first compound 1 µM
[11] = second compound 0.1 µM, first compound 3.16 µM
[12] = second compound 0.1 µM, first compound 10 µM
[13] = second compound 0.316 µM, first compound 0.0316 µM
[14] = second compound 0.316 µM, first compound 0.1 µM
[15] = second compound 0.316 µM, first compound 0.316 µM
[16] = second compound 0.316 µM, first compound 1 µM
[17] = second compound 0.316 µM, first compound 3.16 µM
[18] = second compound 0.316 µM, first compound 10 µM
[19] = second compound 1 µM, first compound 0.0316 µM
[20] = second compound 1 µM, first compound 0.1 µM
[21] = second compound 1 µM, first compound 0.316 µM
[22] = second compound 1 µM, first compound 1 µM
[23] = second compound 1 µM, first compound 3.16 µM
[24] = second compound 1 µM, first compound 10 µM
[25] = second compound 3.16 µM, first compound 0.0316 µM
[26] = second compound 3.16 µM, first compound 0.1 µM
[27] = second compound 3.16 µM, first compound 0.316 µM
[28] = second compound 3.16 µM, first compound 1 µM
[29] = second compound 3.16 µM, first compound 3.16 µM
[30] = second compound 3.16 µM, first compound 10 µM
[31] = second compound 10 µM, first compound 0.0316 µM
[32] = second compound 10 µM, first compound 0.1 µM
[33] = second compound 10 µM, first compound 0.316 µM
[34] = second compound 10 µM, first compound 1 µM
[35] = second compound 10 µM, first compound 3.16 µM
[36] = second compound 10 µM, first compound 10 µM
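Also: spheroids exposed to drugs for seven days before reading.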
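For viability, T/C in this document: 100% = DMSO vehicle control viability in luminescence.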

C#Cc1c(F)ccc2cc(O)cc(-c3ncc4c(N5CC6CCC(C5)N6)nc(OCC56CCCN5CC(F)C6)nc4c3F)c12 (stereo not drawn) + Cc1cccc(N(C)C(=O)C2C(O)CCN2c2nc(C)cc(C(F)(F)F)c2C#N)c1
IC50 (second compound 0.0316 µM): > 10 µM | IC50 (second compound 0.1 µM): > 10 µM | IC50 (second compound 0.316 µM): > 10 µM | IC50 (second compound 1 µM): > 10 µM | IC50 (second compound 3.16 µM): > 10 µM | IC50 (second compound 10 µM): > 10 µM | viability, T/C [1]: 102% | viability, T/C [2]: 78.8% | viability, T/C [3]: 78.5% | viability, T/C [4]: 82.1% | viability, T/C [5]: 76.5% | viability, T/C [6]: 66.5% | viability, T/C [7]: 103% | viability, T/C [8]: 86.2% | viability, T/C [9]: 91.1% | viability, T/C [10]: 76% | viability, T/C [11]: 73.4% | viability, T/C [12]: 70.4% | viability, T/C [13]: 95% | viability, T/C [14]: 87.8% | viability, T/C [15]: 88.3% | viability, T/C [16]: 79.4% | viability, T/C [17]: 79.3% | viability, T/C [18]: 72.8% | viability, T/C [19]: 91.8% | viability, T/C [20]: 91.4% | viability, T/C [21]: 95% | viability, T/C [22]: 88.5% | viability, T/C [23]: 77.7% | viability, T/C [24]: 79.1% | viability, T/C [25]: 98.7% | viability, T/C [26]: 107% | viability, T/C [27]: 94.2% | viability, T/C [28]: 83% | viability, T/C [29]: 84.5% | viability, T/C [30]: 73.3% | viability, T/C [31]: 117% | viability, T/C [32]: 96.7% | viability, T/C [33]: 89.6% | viability, T/C [34]: 78.2% | viability, T/C [35]: 88.1% | viability, T/C [36]: 73.4%

CC1COCCN1c1cc(C2(O)CC3CCC(C2)O3)c2cnn(-c3ccn[nH]3)c2n1 (stereo not drawn) + Cc1cccc(N(C)C(=O)C2C(O)CCN2c2nc(C)cc(C(F)(F)F)c2C#N)c1
IC50 (second compound 0.0316 µM): 0.252 µM | IC50 (second compound 0.1 µM): 0.256 µM | IC50 (second compound 0.316 µM): 0.298 µM | IC50 (second compound 1 µM): 0.467 µM | IC50 (second compound 3.16 µM): 0.548 µM | IC50 (second compound 10 µM): 0.291 µM | viability, T/C [1]: 117% | viability, T/C [2]: 70.1% | viability, T/C [3]: 47.8% | viability, T/C [4]: 29.2% | viability, T/C [5]: 43.7% | viability, T/C [6]: 46.3% | viability, T/C [7]: 95.8% | viability, T/C [8]: 73.1% | viability, T/C [9]: 42% | viability, T/C [10]: 35.9% | viability, T/C [11]: 37.3% | viability, T/C [12]: 64.2% | viability, T/C [13]: 101% | viability, T/C [14]: 82.9% | viability, T/C [15]: 49.2% | viability, T/C [16]: 33.8% | viability, T/C [17]: 43.5% | viability, T/C [18]: 52.3% | viability, T/C [19]: 94.1% | viability, T/C [20]: 85.5% | viability, T/C [21]: 54.8% | viability, T/C [22]: 34.5% | viability, T/C [23]: 38.6% | viability, T/C [24]: 54.3% | viability, T/C [25]: 98.3% | viability, T/C [26]: 89.3% | viability, T/C [27]: 55.1% | viability, T/C [28]: 32.1% | viability, T/C [29]: 46.8% | viability, T/C [30]: 56.8% | viability, T/C [31]: 102% | viability, T/C [32]: 78.1% | viability, T/C [33]: 48.8% | viability, T/C [34]: 32.8% | viability, T/C [35]: 51.7% | viability, T/C [36]: 50%

CCc1cc2c(N3CCc4c(cc(Cn5ccnc5)cc4-c4cn(C)nc4C(F)(F)F)C3=O)cc(C)nc2c(OC)n1 + Cc1cccc(N(C)C(=O)C2C(O)CCN2c2nc(C)cc(C(F)(F)F)c2C#N)c1
IC50 (second compound 0.0316 µM): > 10 µM | IC50 (second compound 0.1 µM): > 10 µM | IC50 (second compound 0.316 µM): > 10 µM | IC50 (second compound 1 µM): > 10 µM | IC50 (second compound 3.16 µM): > 10 µM | IC50 (second compound 10 µM): > 10 µM | viability, T/C [1]: 116% | viability, T/C [2]: 91.1% | viability, T/C [3]: 83.4% | viability, T/C [4]: 87.9% | viability, T/C [5]: 72.2% | viability, T/C [6]: 68.1% | viability, T/C [7]: 99.3% | viability, T/C [8]: 99.4% | viability, T/C [9]: 88.1% | viability, T/C [10]: 78.5% | viability, T/C [11]: 75.8% | viability, T/C [12]: 69.6% | viability, T/C [13]: 112% | viability, T/C [14]: 99.1% | viability, T/C [15]: 85.4% | viability, T/C [16]: 79.4% | viability, T/C [17]: 82.7% | viability, T/C [18]: 72.7% | viability, T/C [19]: 102% | viability, T/C [20]: 94.9% | viability, T/C [21]: 84.2% | viability, T/C [22]: 84.6% | viability, T/C [23]: 78.3% | viability, T/C [24]: 72.6% | viability, T/C [25]: 107% | viability, T/C [26]: 98.4% | viability, T/C [27]: 101% | viability, T/C [28]: 79.8% | viability, T/C [29]: 82.5% | viability, T/C [30]: 73.9% | viability, T/C [31]: 110% | viability, T/C [32]: 103% | viability, T/C [33]: 93.9% | viability, T/C [34]: 90.1% | viability, T/C [35]: 86.7% | viability, T/C [36]: 79.3%

O=C(Nc1ccc(O)c(NS(=O)(=O)c2ccc(F)cc2)c1)c1ccc(-c2ccccc2)cc1 + Cc1cccc(N(C)C(=O)C2C(O)CCN2c2nc(C)cc(C(F)(F)F)c2C#N)c1
IC50 (second compound 0.0316 µM): > 10 µM | IC50 (second compound 0.1 µM): > 10 µM | IC50 (second compound 0.316 µM): > 10 µM | IC50 (second compound 1 µM): > 10 µM | IC50 (second compound 3.16 µM): > 10 µM | IC50 (second compound 10 µM): > 10 µM | viability, T/C [1]: 94.8% | viability, T/C [2]: 97.5% | viability, T/C [3]: 98.2% | viability, T/C [4]: 96.3% | viability, T/C [5]: 106% | viability, T/C [6]: 109% | viability, T/C [7]: 101% | viability, T/C [8]: 98.5% | viability, T/C [9]: 99.7% | viability, T/C [10]: 90.4% | viability, T/C [11]: 101% | viability, T/C [12]: 94.8% | viability, T/C [13]: 96.9% | viability, T/C [14]: 96.4% | viability, T/C [15]: 93.5% | viability, T/C [16]: 101% | viability, T/C [17]: 103% | viability, T/C [18]: 101% | viability, T/C [19]: 113% | viability, T/C [20]: 106% | viability, T/C [21]: 101% | viability, T/C [22]: 102% | viability, T/C [23]: 98.9% | viability, T/C [24]: 103% | viability, T/C [25]: 103% | viability, T/C [26]: 104% | viability, T/C [27]: 106% | viability, T/C [28]: 100% | viability, T/C [29]: 108% | viability, T/C [30]: 105% | viability, T/C [31]: 114% | viability, T/C [32]: 100% | viability, T/C [33]: 106% | viability, T/C [34]: 97.9% | viability, T/C [35]: 99.8% | viability, T/C [36]: 98.5%

From PubChem BioAssay AID1963850 (Molecular Pharmacology Branch, DTP, NCI, 2024)
